One test addresses T1, SARS-CoV-2 spike protein (Severe acute respiratory syndrome coronavirus 2, UniProt P0DTC2).
T1 construct: host or cells: HEK293T
It counts as binding.

For the next test, the target named is T2, human L-SIGN (Homo sapiens, UniProt Q9H2X3).
T2 construct: host or cells: HEK293T
T2 sequence (Q9H2X3 1-399): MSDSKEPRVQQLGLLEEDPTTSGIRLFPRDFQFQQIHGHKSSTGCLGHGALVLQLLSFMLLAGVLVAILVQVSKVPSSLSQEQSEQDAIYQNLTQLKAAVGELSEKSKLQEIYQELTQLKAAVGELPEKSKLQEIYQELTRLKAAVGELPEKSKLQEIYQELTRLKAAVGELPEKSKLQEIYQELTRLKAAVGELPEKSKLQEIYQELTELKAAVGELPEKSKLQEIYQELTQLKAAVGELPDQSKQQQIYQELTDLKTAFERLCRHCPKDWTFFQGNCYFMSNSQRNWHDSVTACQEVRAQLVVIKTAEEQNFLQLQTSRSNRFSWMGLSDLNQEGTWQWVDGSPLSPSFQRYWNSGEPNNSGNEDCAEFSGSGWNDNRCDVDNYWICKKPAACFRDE
Put plainly: Flow cytometry of Spike/Fc binding to L-SIGN-expressing HEK293T cells. The settings on record: EGTA 1 mM. A general note: In flow cytometry, cells or beads pass a laser one at a time.

Test [1] deals with high-mannose type N-glycans on spike protein-expressing HEK293T cells. Put plainly: Flow cytometry of GNL lectin binding to spike protein-expressing HEK293T cells. It counts as cell-based. The conditions noted are these: spike protein-expressing HEK293T cells treated with kifunensine 10 μM, 48 h.
For test [2], the system named is VSVG-type pseudo-typed virus. It counts as cell-based.
Test [3] relates to SARS-CoV-2-type pseudo-typed virus (CoV2-type). It counts as cell-based.

Take `O=C(O)CN(CCOCCOCCN(CC(=O)O)CC(=O)O)CC(=O)O` [EGTA]: the “inhibition of L-SIGN/Fc binding to spike protein-expressing HEK293T cells” value on SARS-CoV-2 spike protein is recorded as “inhibited”. For the same compound, the “blocking of the interaction of Spike/Fc with L-SIGN” value at human L-SIGN is “blocked”.

`O=C1N[C@@H]2[C@@H](O)[C@@H](O)[C@H](O)[C@@H](CO)N2C1=O` [Kifunensine]: the “effect of treatment on binding of spike protein to L-SIGN/Fc” value on SARS-CoV-2 spike protein is recorded as “enhanced”. Moreover, the “effect of treatment on binding of spike protein to GNL” value in test [1] is reported as “enhanced”.

For mannan, the “blocking of control VSVG-type infection (% infection efficiency)” value in test [2] is recorded as “but not control VSVG-type infection”. Moreover, the “inhibition of L-SIGN/Fc binding to spike protein-expressing HEK293T cells” value at SARS-CoV-2 spike protein is given as “inhibited”. Besides, the “blocking of L-SIGN-mediated CoV2-type infection (% infection efficiency)” value in test [3] is given as “dose-dependently blocked”.

(Values after patent US20220125878A1, “Compositions and Methods for Preventing the Interaction Between SARS-COV-2 and L-Sign” (priority 2020, published 2022).)
